Measured values taken from the NIST ThermoML archive (doi:10.1016/j.jct.2016.10.031).

Test: molar heat capacity at constant pressure
Conditions: 101.33 kPa, Small (less than 1 g) adiabatic calorimetry

CC(C)(C)c1ccc(Oc2ccc([N+](=O)[O-])cc2)cc1 [1-(tert-butyl)-4-(4-nitrophenoxy)benzene]
molar heat capacity at constant pressure [J/K/mol]
Conditions	Crystal	Glass
88.13 K	121.72	–
88.7 K	–	125.63
88.93 K	122.72	–
89.5 K	–	126.55
89.73 K	123.64	–
90 K	123.8	–
90.3 K	–	127.29
90.54 K	124.63	–
91.1 K	–	128.38
91.34 K	125.55	–
91.91 K	–	129.29
92.15 K	126.55	–
92.71 K	–	130.12
92.95 K	127.29	–
93.52 K	–	131.12
93.75 K	128.13	–
94.32 K	–	132.03
94.56 K	129.21	–
95.13 K	–	132.87
95.36 K	130.12	–
95.93 K	–	133.7
96.17 K	131.04	–
96.73 K	–	134.69
96.97 K	132.03	–
97.54 K	–	135.44
97.77 K	132.87	–
98.34 K	–	136.44
98.58 K	133.78	–
99.14 K	–	137.35
99.38 K	134.61	–
99.95 K	–	138.35
100 K	135.53	–
100.19 K	135.53	–
100.75 K	–	139.43
100.99 K	136.44	–
101.55 K	–	140.18
101.79 K	137.27	–
102.35 K	–	141.01
102.59 K	138.27	–
103.16 K	–	142.01
103.4 K	139.18	–
103.96 K	–	142.76
104.2 K	140.1	–
104.76 K	–	143.67
105 K	141.18	–
105.56 K	–	144.67
105.8 K	141.93	–
106.36 K	–	145.42
106.6 K	142.84	–
107.16 K	–	146.17
107.4 K	143.67	–
107.96 K	–	147.25
108.21 K	144.51	–
108.77 K	–	148.25
109.01 K	145.5	–
109.57 K	–	149
109.81 K	146.25	–
110 K	146.42	–
110.37 K	–	149.83
110.61 K	147.17	–
111.17 K	–	150.74
111.42 K	148.08	–
111.97 K	–	151.66
112.22 K	149	–
112.78 K	–	152.74
113.02 K	149.74	–
113.58 K	–	153.57
113.82 K	150.57	–
114.38 K	–	154.32
114.63 K	151.57	–
115.18 K	–	155.23
115.43 K	152.57	–
115.99 K	–	156.23
116.23 K	153.24	–
116.79 K	–	156.89
117.04 K	154.32	–
117.59 K	–	157.81
117.84 K	155.15	–
118.4 K	–	158.72
118.64 K	155.98	–
119.2 K	–	159.8
119.45 K	156.81	–
120 K	157.31	160.64
120.25 K	157.89	–
120.81 K	–	161.47
121.06 K	158.56	–
121.61 K	–	162.22
121.86 K	159.64	–
122.41 K	–	163.13
122.66 K	160.3	–
123.21 K	–	164.21
123.47 K	161.22	–
124.02 K	–	164.88
124.27 K	162.13	–
124.82 K	–	165.96
125.07 K	162.96	–
125.62 K	–	166.54
125.87 K	163.79	–
126.42 K	–	167.37
126.68 K	164.71	–
127.23 K	–	168.2
127.48 K	165.54	–
128.03 K	–	169.2
128.28 K	166.54	–
128.83 K	–	170.03
129.09 K	167.45	–
129.63 K	–	170.95
129.89 K	168.2	–
130 K	168.2	–
130.43 K	–	171.94
130.69 K	169.03	–
131.24 K	–	172.53
131.49 K	170.03	–
132.04 K	–	173.27
132.3 K	170.86	–
132.84 K	–	174.35
133.1 K	171.69	–
133.64 K	–	175.19
133.9 K	172.77	–
134.44 K	–	176.02
134.71 K	173.61	–
135.25 K	–	176.93
135.51 K	174.44	–
136.05 K	–	177.85
136.31 K	175.1	–
136.85 K	–	178.76
137.11 K	176.02	–
137.65 K	–	179.76
137.92 K	176.85	–
138.45 K	–	180.67
138.72 K	177.93	–
139.25 K	–	181.5
139.52 K	178.68	–
140 K	179.01	–
140.06 K	–	182.42
140.32 K	179.43	–
140.86 K	–	183.25
141.12 K	180.26	–
141.66 K	–	184
141.93 K	181.34	–
142.46 K	–	184.83
142.72 K	181.92	–
143.25 K	–	185.83
143.53 K	182.83	–
144.06 K	–	186.66
144.33 K	183.83	–
144.86 K	–	187.57
145.13 K	184.75	–
145.66 K	–	188.41
145.93 K	185.66	–
146.46 K	–	189.32
146.73 K	186.49	–
147.26 K	–	190.15
